Data from patent US20060211045A1, “Fluorescently tagged ligands” (priority 2003, published 2006).

Assays:
human A1-receptor = target: T1, human A1-receptor (Homo sapiens, UniProt P30542); test: Live cell confocal imaging of ligand binding to CHO-A1 cells; assay type: cell-based; parameters: expressed in transfected cells; host or cells: CHO (CHO-K1) cells: CHO-A1 and CHO-A1fos; cell membranes in A1, whole or live cells in the other assays
T1 sequence (P30542 1-326): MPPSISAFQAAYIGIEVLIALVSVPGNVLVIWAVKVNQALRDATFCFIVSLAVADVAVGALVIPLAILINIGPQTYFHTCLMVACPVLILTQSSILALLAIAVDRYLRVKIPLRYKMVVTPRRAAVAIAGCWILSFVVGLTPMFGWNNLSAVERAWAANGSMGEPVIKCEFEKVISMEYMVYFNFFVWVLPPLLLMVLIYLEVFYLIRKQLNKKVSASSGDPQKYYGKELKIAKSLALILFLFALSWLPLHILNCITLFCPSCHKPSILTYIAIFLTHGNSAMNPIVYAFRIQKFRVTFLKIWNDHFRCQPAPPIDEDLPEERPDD
Experimental: Images were acquired using a Zeiss LSM510 confocal microscope using CHO-A1 cells grown to 50% confluency on 8-well Labtek™ plates in Dulbecco's
Modification of Eagle's Medium:Ham's F12 containing 5% foetal calf serum and 2 mM glutamine. Cells were washed twice with HEPES-buffered saline prior to incubation at 22° C. with compounds as indicated.
Functional studies were performed in CHO-K1 cells expressing both the human A1-AR and a c-fos-pGL3 reporter vector (CHO-A1fos cells). […] Luciferase expression was quantified using a Luclite® kit according to manufacturer's instructions. Live cell confocal imaging was carried out on CHO-A1 cells or CHO cells expressing the A1-AR tagged on the C-terminus with a green fluorescent protein (CHO-A1Tpz).

[1] = target: T2, human adenosine A1 receptor (A1-AR) (Homo sapiens, UniProt P30542); test: Fluorescence correlation spectroscopy (FCS) of ligand binding on CHO-A1 cells
T2 construct: expressed in transfected cells; host or cells: CHO (CHO-K1) cells: CHO-A1 and CHO-A1fos; cell membranes in A1, whole or live cells in the other assays
T2 sequence (P30542 1-326): T1 sequence (P30542 1-326)
From the text: FCS is a non-invasive technique which measures fluctuations in fluorescence intensity in a confocal volume of <10^−15 l. Statistical analysis of these fluctuations gives information about the speed of diffusion (i.e. mass) and concentration of the fluorescent molecules present. Thus free ligand (fast diffusing) and bound ligand (slow diffusing) can be quantified simultaneously on a single cell. We have used FCS to measure binding of the fluorescent ligand, xanthine amine cogener-BODIPY®630/650 (XAC-BY630) to the human adenosine A1 receptor (A1-AR).
CHO cells expressing either the human A1-AR or an A1-AR-Topaz fusion were cultured on glass-bottomed 8-well plates and prepared for live cell measurement FCS measurements were made using a Zeiss Confocor 2, fitted with an Axiocam CCD camera for x-y positioning. Cells were incubated with ligands at 22° C. for the times indicated and the confocal volume was positioned on the upper membrane. Data were collected for 2×30 s, following a 15 s pre-bleach and analysed using a multi-parameter equation using Zeiss AIM software.

[2] = target: human adenosine A1-receptor (Homo sapiens, UniProt P30542); test: biochemical

| Compound | Inhibition of membrane binding of XAC-BY630 (confocal imaging) (human A1-receptor; 30 min pre-incubation with DPCPX 10^−8-10^−6M, XAC-BY630 30 min, 50 nM) | Amount of τD1 component after DPCPX preincubation ([1]; 15 nM XAC-BY630 for 30 min, DPCPX 1 μM, 30 min preincubation, n=4) | Amount of τD1 component ([1]; 15 nM XAC-BY630 for 30 min, no DPCPX, n=8) | Diffusion time τD of free ligand in buffer (FCS) ([1]; in buffer, single component, n=10) | Diffusion time τD2, very slow diffusing component (non-specific binding) ([1]; upper membrane of CHO-A1 cells, XAC-BY630 1-40 nM, 10-60 min, 61/71 cells) | Diffusion time τD1, first slow-diffusing component (receptor-bound ligand) ([1]; upper membrane of CHO-A1 cells, XAC-BY630 1-40 nM, 10-60 min, 69/71 cells) | Kb [2] | Binding to membrane-localised A1-ARs (confocal imaging) (human A1-receptor; CHO-A1 cells, 22° C.) | Time after which binding was detected (confocal imaging) (human A1-receptor; XAC-BY630 25-250 nM, CHO-A1 cells) |
| --- | --- | --- | --- | --- | --- | --- | --- | --- | --- |
| CCCn1c(=O)c2[nH]c(C3CCCC3)nc2n(CCC)c1=O [DPCPX, 8-cyclopentyl-1,3-dipropyl xanthine, reference compound] | concentration-dependent inhibition |  |  |  |  |  |  |  |  |
| CCCn1c(=O)c2[nH]c(-c3ccc(OCC(=O)NCCNC(=O)CCCCCNC(=O)COc4ccc(/C=C/C5=[N+]6C(=Cc7ccc(-c8cccs8)n7[B-]6(F)F)C=C5)cc4)cc3)nc2n(CCC)c1=O [XAC-BY630, xanthine amine cogener-BODIPY®630/650] |  | 13.6±5.4 receptors/μm^2 | 51.8±14.9 receptors/μm^2 | 60±2 μs | 345 ± 41 ms | 17.4 ± 1.1 ms | 126 nM | time- and concentration-dependent manner | 5 min |
